Measurements: ChEMBL document CHEMBL5036315, “Synthesis, Structure-Activity Relationships, and In Vivo Evaluation of Novel Tetrahydropyran-Based Thiodisaccharide Mimics as Galectin-3 Inhibitors” (J Med Chem, 2021)
In brackets after ≈: the same amount, converted by molar mass.

Tests used:
[1] = Metabolic stability in mouse liver microsomes assessed as compound remaining at 0.5 uM incubated for10 mins in presence of NADPH by LC-MS/MS analysis; assay type: ADME, Microsome; settings: read-out: Stability
[2] = Aqueous solubility of the compound at pH 7.4; assay type: physicochemical; settings: aqueous solution
[3] = Bioavailability in C57BL/6 mouse at 30 mg/kg, sc measured upto 24 hrs; assay type: ADME, organism-based; settings: in vivo
[4] = Half life in C57BL/6 mouse at 2 mg/kg, iv measured upto 24 hrs; assay type: ADME, organism-based; settings: in vivo
[5] = AUC in C57BL/6 mouse at 30 mg/kg, sc measured upto 24 hrs; assay type: ADME, organism-based; design: route subcutaneous, dose 30 mg/kg, time <=24; settings: in vivo
[6] = Volume of distribution at steady state in C57BL/6 mouse at 2 mg/kg, iv measured upto 24 hrs; assay type: ADME, organism-based; settings: in vivo
[7] = Cmax in C57BL/6 mouse at 30 mg/kg, sc measured upto 24 hrs; assay type: ADME, organism-based; design: route subcutaneous, dose 30 mg/kg, time <=24; settings: in vivo
[8] = Metabolic stability in human liver microsomes assessed as compound remaining at 0.5 uM incubated for10 mins in presence of NADPH by LC-MS/MS analysis; assay type: ADME, Microsome; settings: read-out: Stability
[9] = Aqueous solubility of the compound at pH 1; assay type: physicochemical; settings: aqueous solution
[10] = Cmax in C57BL/6 mouse at 30 mg/kg, po measured upto 24 hrs; assay type: ADME, organism-based; design: route oral, dose 30 mg/kg, time <=24; settings: in vivo
[11] = AUC in C57BL/6 mouse at 30 mg/kg, po measured upto 24 hrs; assay type: ADME, organism-based; design: route oral, dose 30 mg/kg, time <=24; settings: in vivo
[12] = Clearance in C57BL/6 mouse at 2 mg/kg, iv measured upto 24 hrs; assay type: ADME, organism-based; settings: in vivo
[13] = Oral bioavailability in C57BL/6 mouse at 30 mg/kg measured upto 24 hrs; assay type: ADME, organism-based; settings: in vivo

| remaining at 10 min, 0.5 µM [1] [%] | solubility [2] [µg/mL] | F ([3]; mouse, 30 mg/kg, 24 h) [%] | half-life [4] [h] | AUC ([5]; mouse, 24 h) [µM·h] | Vss [6] [L/kg] | Cmax [7] [nM] | remaining at 10 min, 0.5 µM [8] [%] | solubility [9] [µg/mL] | Cmax [10] [nM] | AUC at 24 h [11] [µM·h] | clearance [12] [mL/min/kg] | bioavailability [13] [%] | bioavailability ([3]; C57BL/6, mouse) [%] | AUC at 24 h ([5]; C57BL/6, mouse) [µM·h] | Structure (SMILES) |
| --- | --- | --- | --- | --- | --- | --- | --- | --- | --- | --- | --- | --- | --- | --- | --- |
| 89 | 3 (≈ 4.71 µM) | 100 | 1.4 | 49 | 2.4 | 5900 | 45 | 6 (≈ 9.42 µM) |  |  |  |  |  |  | CO[C@@H]1[C@@H](n2cc(-c3cc(F)c(F)c(F)c3)nn2)[C@@H](O)[C@@H](CO)O[C@H]1S[C@@H]1COC[C@H](n2cc(-c3cncnc3)nn2)[C@H]1O |
|  |  |  |  |  |  |  |  | < 1 |  |  |  |  |  |  | COc1ncc(-c2cn([C@H]3COC[C@@H](S[C@@H]4O[C@H](CO)[C@H](O)[C@H](n5cc(-c6cc(F)c(F)c(F)c6)nn5)[C@H]4OC)[C@@H]3O)nn2)cn1 |
| 72 |  |  | 1.9 |  | 3.6 |  | 78 |  | 200 | 0.3 | 59 | 2 |  |  | CO[C@@H]1[C@@H](n2cc(-c3cc(F)c(F)c(F)c3)nn2)[C@@H](O)[C@@H](CO)O[C@H]1S[C@@H]1COC[C@H](n2cc(-c3cccc(F)c3)nn2)[C@H]1O |
|  |  |  | 1.6 |  | 0.7 | 10300 |  |  | 300 | 0.3 | 30 | 1 | 66 | 17 | OC[C@H]1O[C@@H](S[C@@H]2O[C@H](CO)[C@H](O)[C@H](n3cc(-c4cccc(F)c4)nn3)[C@H]2O)[C@H](O)[C@@H](n2cc(-c3cccc(F)c3)nn2)[C@H]1O [OLITIGALTIN] |
|  |  |  |  |  |  |  |  | < 1 |  |  |  |  |  |  | CO[C@@H]1[C@@H](n2cc(-c3cc(F)c(F)c(F)c3)nn2)[C@@H](O)[C@@H](CO)O[C@H]1S[C@@H]1COC[C@H](n2cc(-c3nccs3)nn2)[C@H]1O |
|  | < 1 |  |  |  |  |  |  | < 1 |  |  |  |  |  |  | COc1cnc(-c2cn([C@H]3COC[C@@H](S[C@@H]4O[C@H](CO)[C@H](O)[C@H](n5cc(-c6cc(F)c(F)c(F)c6)nn5)[C@H]4OC)[C@@H]3O)nn2)nc1 |
| 92 |  |  | 1.2 |  | 1.6 |  | 98 |  | 10 | 0.04 | 69 | 0.3 |  |  | CO[C@@H]1[C@@H](n2cc(-c3cc(F)c(F)c(F)c3)nn2)[C@@H](O)[C@@H](CO)O[C@H]1S[C@@H]1COC[C@H](n2cc(-c3cccc(O)c3)nn2)[C@H]1O |
